Counter-ions that a name gives are not always drawn.
biological target: T1, lyophilized bovine thrombin standard substance purified from bovine blood (Bos taurus, UniProt P00735); assay: Test for antithrombin activity (chromogenic substrate S2238); format: biochemical; conditions: not given
T1 construct: lyophilized bovine thrombin standard substance purified from bovine blood; from tissue; host or cells: bovine blood
Excerpt: Wherein ΔAs represents the rate of change in inhibited absorbance value, and ΔAc represents the rate of change in uninhibited absorbance values.
Wherein h represents Hill coefficient.

| Compound | IC50 |
| --- | --- |
| CC(C)CC(NS(=O)(=O)c1ccccc1)C(=O)N1CCC[C@H]1C(=O)NCc1ccc(C(=N)N)cc1 (stereo partly drawn) [Example 2, N-benzenesulfonyl-D,L-leucyl-L-prolyl-[(4-amidinophenyl)methyl]amide acetate] | 115 nM |
| CC(C)C[C@@H](NS(=O)(=O)Cc1ccccc1)C(=O)N1CCC[C@H]1C(=O)NCc1ccc(C(=N)N)cc1 [Example 21, N-benzylsulfony-D-leucyl-L-prolyl-[(4-amidinophenyl)methyl]amide hydrochloride] | 170 nM |
| N=C(N)c1ccc(CNC(=O)[C@@H]2CCN2C(=O)[C@H](NCC(=O)O)C2CCCCC2)cc1 [melagatran, reference compound] | 69 nM |

same assay, conditions: 0.15 U/ml bovine thrombin, incubation for 15 minutes, substrate S2238 (0.075 μM), absorbance at 405 nm during 4 minutes, room temperature; read-out: IC50

| Compound | IC50 |
| --- | --- |
| CC(C)CC(NC(=O)c1ccccc1)C(=O)N1CCC[C@H]1C(=O)NCc1ccc(C(=N)N)cc1 (mixture of isomers) [Example 6, N-benzoyl-D,L-leucyl-L-prolyl-[(4-amidinophenyl)methyl]amide acetate] | 154 nM |
| CC[C@H](C)[C@H](NC(=O)c1ccccc1)C(=O)N1CCC[C@H]1C(=O)NCc1ccc(C(=N)N)cc1 (mixture of isomers) [Example 12, N-benzoyl-D,L-isoleucyl-L-prolyl-[(4-amidinophenyl)methyl]amide acetate] | 561 nM |
| CC(C)C[C@@H](NS(=O)(=O)c1ccccc1)C(=O)N1CCC[C@H]1C(=O)NCc1ccc(C(=N)NC(=O)OCc2ccccc2)cc1 [Example 18] | 30 nM |
| CC(C)C[C@@H](NS(=O)(=O)c1ccccc1)C(=O)N1CCC[C@H]1C(=O)NCc1ccc(C(=N)N)cc1 [Example 19, N-benzenesulfony-D-leucyl-L-prolyl-[(4-amidinophenyl)methyl]amide hydrochloride] | 12 nM |
| CC(C)C[C@@H](NS(=O)(=O)Cc1ccccc1)C(=O)N1CCC[C@H]1C(=O)NCc1ccc(C(=N)NC(=O)OCc2ccccc2)cc1 [Example 20] | 246 nM |
| CC(C)C[C@@H](NC(=O)c1ccccc1)C(=O)N1CCC[C@H]1C(=O)NCc1ccc(C(=N)N)cc1 [Example 22, N-benzoyl-D-leucyl-L-prolyl-[(4-amidinophenyl)methyl]amide hydrochloride] | 55 nM |
| CC(C)C[C@@H](NC(=O)Cc1ccccc1)C(=O)N1CCC[C@H]1C(=O)NCc1ccc(C(=N)N)cc1 [Example 23, N-phenylacetyl-D-leucyl-L-prolyl-[(4-amidinophenyl)methyl]amide hydrochloride] | 472 nM |
| CC(C)C[C@@H](NCC(=O)O)C(=O)N1CCC[C@H]1C(=O)NCc1ccc(C(=N)N)cc1 [Example 24, N-carboxylmethyl-D-leucyl-L-prolyl-[(4-amidinophenyl)methyl]amide hydrochloride] | 561 nM |
| N-benzenesulfonyl-D-leucyl-L-prolyl-[1-(aminoiminomethyl)-pyrrol-3-yl]methyl amide hydrochloride [Example 27] | 8 nM |
| N-benzylsulfonyl-D,L-leucyl-L-prolyl-{[4-(N′-hydroxyl) amidinophenyl]methyl}amide acetate [Example 4] | 47 nM |
